In patent USRE48461E1, “Modulation of androgen receptor expression” (Ionis Pharmaceuticals, Inc., priority 2012, dated 2021):
Oligonucleotides are written 5' to 3', each unit as a sugar letter and its base; * is a phosphorothioate linkage, no mark a phosphodiester; rarer units and linkages stand in square brackets, end groups in braces. Plain capitals give the bases only. k = constrained ethyl (cEt); [5mC] = 5-methylcytosine; d = 2'-deoxy (DNA)

What was measured:
[1] = tested on: AR mRNA; test: Antisense inhibition of human AR in HuVEC cells, single concentration (electroporation, qRT-PCR RTS3559); type: cell-based
How it was run: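 HuVEC cells electroporated with antisense oligonucleotides at a single concentration. AR mRNA quantified by qRT-PCR using human primer-probe set RTS3559 and normalised to total RNA content by RIBOGREEN.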

[2] = tested on: AR mRNA; test: Dose-dependent antisense inhibition of human AR in HuVEC cells (electroporation, qRT-PCR RTS3559, IC50); type: cell-based; conditions: HuVEC
How it was run: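 HuVEC cells dosed with antisense oligonucleotides by electroporation and treated approximately 16 hours. AR mRNA quantified by real-time qPCR with primer probe set RTS3559 and normalised to total RNA by RIBOGREEN; IC50 from dose-response.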

[3] = Table 24, 1,000 nM oligonucleotide, electroporation, approximately 24 hours, relative to untreated control
[4] = Table 35, electroporation, approximately 16 hours
[5] = Table 20, 500 nM oligonucleotide, electroporation, approximately 24 hours, relative to untreated control
[6] = Table 33, electroporation, approximately 16 hours
[7] = Table 34, electroporation, approximately 16 hours
[8] = Table 31, electroporation, approximately 16 hours

Substance: 584162 (kT*kG*kG*dA*dT*dT*dG*dT*dA*dA*dA*dT*dT*kA*k[5mC]*kG; antisense) [compound 584162]
- % inhibition [1, 3]: 82%
- percent inhibition of AR, 46.9 nM [2, 4]: 24%
- percent inhibition of AR, 187.5 nM [2, 4]: 45%
- percent inhibition of AR, 750.0 nM [2, 4]: 80%
- percent inhibition of AR, 3000.0 nM [2, 4]: 92%
- IC50 [2, 4]: 180 nM

Substance: 560098 (kT*kG*kA*dT*dT*dT*dA*dA*dT*dG*dG*dT*dT*kG*k[5mC]*kA; further chemistry not given here) [compound 560098]
- % inhibition ([1]; 250 nM ASO, ~24 h, Table 7): 69%
- % inhibition ([1]; 500 nM ASO, ~24 h, Table 5): 99%
- percent inhibition of AR ([2]; 31.25 nM, ~16 h, Table 6): 20%
- percent inhibition of AR ([2]; 31.25 nM, ~16 h, Table 8): 30%
- percent inhibition of AR ([2]; 62.5 nM, ~16 h, Table 6): 41%
- percent inhibition of AR ([2]; 62.5 nM, ~16 h, Table 8): 54%
- percent inhibition of AR ([2]; 125.0 nM, ~16 h, Table 6): 64%
- percent inhibition of AR ([2]; 125.0 nM, ~16 h, Table 8): 65%
- percent inhibition of AR ([2]; 500.0 nM, ~16 h, Table 6): 94%
- percent inhibition of AR ([2]; 500.0 nM, ~16 h, Table 8): 89%
- percent inhibition of AR ([2]; 1000.0 nM, ~16 h, Table 6): 94%
- percent inhibition of AR ([2]; 1000.0 nM, ~16 h, Table 8): 97%
- IC50 ([2]; ~16 h, Table 6): 100 nM
- IC50 ([2]; ~16 h, Table 8): 70 nM

Substance: 584180 (kG*kT*kA*dG*dA*dT*dT*d[5mC]*dT*dA*dG*d[5mC]*dT*kT*kT*kG; antisense) [compound 584180]
- % inhibition [1, 3]: 81%
- percent inhibition of AR, 46.9 nM [2, 4]: 26%
- percent inhibition of AR, 187.5 nM [2, 4]: 56%
- percent inhibition of AR, 750.0 nM [2, 4]: 84%
- percent inhibition of AR, 3000.0 nM [2, 4]: 96%
- IC50 [2, 4]: 120 nM

Substance: 560100 (antisense kT*kG*kG*dT*dT*dG*dA*dT*dT*dT*dA*dA*dT*kG*kG*kT) [compound 560100]
- % inhibition ([1]; 500 nM ASO, ~24 h, Table 5): 91%
- percent inhibition of AR ([2]; 31.25 nM, ~16 h, Table 6): 16%
- percent inhibition of AR ([2]; 62.5 nM, ~16 h, Table 6): 24%
- percent inhibition of AR ([2]; 125.0 nM, ~16 h, Table 6): 53%
- percent inhibition of AR ([2]; 500.0 nM, ~16 h, Table 6): 81%
- percent inhibition of AR ([2]; 1000.0 nM, ~16 h, Table 6): 93%
- IC50 ([2]; ~16 h, Table 6): 100 nM

Substance: 583862 (kG*k[5mC]*kT*d[5mC]*dT*dT*dG*d[5mC]*d[5mC]*dT*dG*d[5mC]*dG*k[5mC]*kT*kG; antisense) [compound 583862]
- % inhibition [1, 5]: 32%
- percent inhibition of AR, 46.9 nM [2, 6]: 15%
- percent inhibition of AR, 187.5 nM [2, 6]: 37%
- percent inhibition of AR, 750.0 nM [2, 6]: 64%
- percent inhibition of AR, 3000.0 nM [2, 6]: 79%
- IC50 [2, 6]: 410 nM

Substance: 583847 (kA*k[5mC]*kA*dG*d[5mC]*dG*dG*dG*dT*dG*dG*dA*dA*k[5mC]*kT*k[5mC]; antisense) [compound 583847]
- % inhibition [1, 5]: 34%
- percent inhibition of AR, 46.9 nM [2, 6]: 8%
- percent inhibition of AR, 187.5 nM [2, 6]: 30%
- percent inhibition of AR, 750.0 nM [2, 6]: 60%
- percent inhibition of AR, 3000.0 nM [2, 6]: 84%
- IC50 [2, 6]: 460 nM

Substance: 584128 (kA*kT*kT*d[5mC]*dT*dT*dG*dA*d[5mC]*dT*dG*dT*d[5mC]*kT*kG*kA; antisense) [compound 584128]
- % inhibition ([1]; Table 23, 500 nM oligonucleotide, electroporation, approximately 24 hours, relative to untreated control): 38%
- percent inhibition of AR, 46.9 nM [2, 7]: 20%
- percent inhibition of AR, 187.5 nM [2, 7]: 22%
- percent inhibition of AR, 750.0 nM [2, 7]: 41%
- percent inhibition of AR, 3000.0 nM [2, 7]: 72%
- IC50 [2, 7]: 740 nM

Substance: 583790 (antisense kG*kT*kT*dG*d[5mC]*dA*dT*dG*dG*dT*dG*d[5mC]*dT*kG*kG*k[5mC]) [compound 583790]
- % inhibition ([1]; Table 19, 500 nM oligonucleotide, electroporation, approximately 24 hours, relative to untreated control): 39%
- percent inhibition of AR, 46.9 nM [2, 8]: 17%
- percent inhibition of AR, 187.5 nM [2, 8]: 42%
- percent inhibition of AR, 750.0 nM [2, 8]: 65%
- percent inhibition of AR, 3000.0 nM [2, 8]: 81%
- IC50 [2, 8]: 320 nM
